Results: patent publication US7915293B2, “Ubiquitin ligase inhibitors” (Rigel Pharmaceuticals, Inc., priority 2003, dated 2011)

Legend:
Design in all cases: key: “+” indicates that the compound exibits inhibitory activity; “−” indicates that low or no inhibitory activity was observed
[1] = molecular target: E3 (His-APC11/APC2-"APC") (Homo sapiens, UniProt Q9NYG5+Q9UJX6); test: Plate-based E3 ligase assay (APC FLAG), auto-ubiquitination; assay type: biochemical; conditions: for APC Flag 8 pt: 8 concentrations tested
Chain of E3 (His-APC11/APC2-"APC") (Q9NYG5 whole entry): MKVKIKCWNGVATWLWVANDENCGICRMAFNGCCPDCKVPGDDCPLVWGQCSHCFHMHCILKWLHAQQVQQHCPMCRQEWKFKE
Chain of E3 (His-APC11/APC2-"APC") (Q9UJX6 whole entry): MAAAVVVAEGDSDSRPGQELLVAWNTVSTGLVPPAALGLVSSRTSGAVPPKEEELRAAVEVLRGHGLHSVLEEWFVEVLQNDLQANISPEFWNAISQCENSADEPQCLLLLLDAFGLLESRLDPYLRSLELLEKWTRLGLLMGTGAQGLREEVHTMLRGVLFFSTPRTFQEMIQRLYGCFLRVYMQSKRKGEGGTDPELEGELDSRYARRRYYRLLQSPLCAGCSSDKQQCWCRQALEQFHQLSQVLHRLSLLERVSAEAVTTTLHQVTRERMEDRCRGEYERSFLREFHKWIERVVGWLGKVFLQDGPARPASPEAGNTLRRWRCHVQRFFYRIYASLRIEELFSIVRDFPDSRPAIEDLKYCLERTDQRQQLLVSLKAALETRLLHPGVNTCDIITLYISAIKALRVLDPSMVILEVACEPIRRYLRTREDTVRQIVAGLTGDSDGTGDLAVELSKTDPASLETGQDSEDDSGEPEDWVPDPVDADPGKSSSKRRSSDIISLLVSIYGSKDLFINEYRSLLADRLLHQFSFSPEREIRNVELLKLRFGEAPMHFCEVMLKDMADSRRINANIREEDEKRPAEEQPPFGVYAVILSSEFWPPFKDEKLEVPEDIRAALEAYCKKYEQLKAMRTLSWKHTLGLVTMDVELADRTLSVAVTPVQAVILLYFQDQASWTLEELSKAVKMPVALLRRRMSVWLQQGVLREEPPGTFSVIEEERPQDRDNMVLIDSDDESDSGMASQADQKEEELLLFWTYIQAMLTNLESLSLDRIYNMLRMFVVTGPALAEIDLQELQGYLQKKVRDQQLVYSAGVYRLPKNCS
Method in brief: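 His-APC11/APC2 auto-ubiquitination was run in casein-blocked nickel plates for 1 h at room temperature, with E1 at 5 ng/well, UbcH5c at 20 ng/well and APC at 100 ng/well. Buffer was 62.5 mM Tris pH 7.6, 3 mM MgCl2, 1 mM DTT, 2.5 mM ATP and Flag-ubiquitin at 100 ng/well. Detection used anti-Flag/HRP chemiluminescence, and IC50 was typically from 6 or 8 concentrations versus a DMSO control.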

A549 cells [2] = test: Non-photographic proliferation analysis (Promega Cell titer Aqueous), A549; assay type: cell-based; conditions: 6 concentrations tested
Method: (§1) A549 (ATCC# CCL-185), HeLa (ATCC# CCL-2), HCT116 (ATCC# CCL-247), and H1299 (ATCC# CRL-5803) cells were maintained in T175 flasks following the ATCC recommended media and handling procedures. Flasks reaching approximately 70% confluency were trypsinized and resuspended in RPMI media (Cell-Gro catalog number 10-040-CM) modified to contain 5% FBS, 100 ug/mlPen/Strep (Cell-Gro catalog number 30-002-CL), and 0.3 mg/ml L-Glutamine (Cell-Gro catalog number 25-003-CL). A 20,000 cells/ml solution was made for plating. Cells were plated in black Packard 96 well plates by placing 100 μl per well (2,000 cells per well).
(§2) Compounds and additional media were added 24 hours after cell plating. A compound master plate was created with concentrations 500 times greater than the final concentration added to the cells. All compound testing was done in duplicate using 6.3 fold dilutions starting with 10 mM. All outside wells (and 4 internal wells) were DMSO controls. Taxol and at least one additional control were run on all plates. Three microliters of the compound master plate were added to deep well blocks containing 750 μl of RPMI media. One hundred microliters were transferred from the compound/media deep well blocks to the plated cells resulting in a 500 fold dilution of the compounds. Cells were grown at 37° C., 5% CO2 for 48 hours.
(§3) Some cell plates were treated with Promega Cell titer Aqueous 1 kit (promega—VWR catalog number G3580). In this case, 48 hours after the test compound were added, 100 μl of media were removed and 20 μl of cell titer reagent were added to all wells. Plates were incubated at 37° C. for 45 minutes prior to absorbance reads on the Wallac plate reader at 490 nm for 0.1 sec/well.

HeLa cells [3] = test: Non-photographic proliferation analysis (Promega Cell titer Aqueous), HeLa; assay type: cell-based; conditions: 6 concentrations tested
Method: as §1, §2, §3

HeLa cells [4] = test: Cell proliferation assay, photographic image analysis of proliferation, apoptosis and death (PAD assay), HeLa; assay type: cell-based; conditions: 6 concentrations tested
Method in brief: (§4)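 Cells grown in RPMI with 5% FBS (2,000/well) and dosed 24 h after plating with 6.3-fold dilutions in duplicate (master plate 500× final, top 10 mM stock). After 48 h at 37 °C, cells formamide-fixed and DAPI-stained. Image analysis counted live, apoptotic and dead cells.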

A549 cells [5] = test: Cell proliferation assay, photographic image analysis of proliferation, apoptosis and death (PAD assay), A549; assay type: cell-based; conditions: 6 concentrations tested
Method in brief: as §4

Row | SMILES | APC Flag 8 pt [1] | APC Flag (2 pt) ([1]; 2 concentrations tested) | Cell Titer-Aqueous, A549 6 pt (A549 cells [2]) | Cell Titer-Aqueous, HELA 6 pt (HeLa cells [3]) | PAD Assay, HELA 6 pt (HeLa cells [4]) | PAD Assay, A549 6 pt (A549 cells [5])
1 | COc1cccc(NS(=O)(=O)c2cc(Cl)c(Oc3ccc([N+](=O)[O-])cc3Cl)c(Cl)c2)c1F [Example 166, 3,5-dichloro-4-(2-chloro-4-nitrophenoxy)-N-(2-fluoro-3-methoxyphenyl)benzene-sulfonamide] | + |  | + | + |  | 
2 | COc1ccc(NS(=O)(=O)c2cc(Cl)c(Oc3ccc([N+](=O)[O-])cc3Cl)c(Cl)c2)cc1OC [Example 170, 3,5-dichloro-4-(2-chloro-4-nitrophenoxy)-N-(3,4-dimethoxyphenyl)benzenesulfonamide] | + |  | + | + |  | 
3 | O=[N+]([O-])c1ccc(Oc2c(Cl)cc(S(=O)(=O)Nc3cccc(Br)c3)cc2Cl)c(Cl)c1 [Example 159, N-(3-bromophenyl)-3,5-dichloro-4-(2-chloro-4-nitrophenoxy)benzenesulfonamide] | + |  | + | + | + | +
4 | COc1ccc(N(S(=O)(=O)c2cc(Cl)c(Oc3ccc([N+](=O)[O-])cc3Cl)c(Cl)c2)S(=O)(=O)c2cc(Cl)c(Oc3ccc([N+](=O)[O-])cc3Cl)c(Cl)c2)cc1Cl [Example 155, 3,5-dichloro-N-(3-chloro-4-methoxyphenyl)-4-(2-chloro-4-nitrophenoxy)-N-(1,3-dichloro-2-(2-chloro-4-nitrophenoxy)-5-sulfonylbenzene)benzenesulfonamide] | + |  | − | − |  | +
5 | O=[N+]([O-])c1ccc(Oc2c(Cl)cc(S(=O)(=O)Nc3cccc4cc[nH]c34)cc2Cl)c(Cl)c1 [Example 168, 3,5-dichloro-4-(2-chloro-4-nitrophenoxy)-N-1H-indol-7-ylbenzenesulfonamide] | + |  | + | + | + | +
6 | O=[N+]([O-])c1ccc(Oc2c(Cl)cc(S(=O)(=O)Nc3cccc(-c4ccccc4)c3)cc2Cl)c(Cl)c1 [Example 179, N-biphenyl-3-yl-3,5-dichloro-4-(2-chloro-4-nitrophenoxy)benzenesulfonamide] | + |  | − | + |  | 
7 | COc1ccc(NS(=O)(=O)c2cc(Cl)c(Oc3ccc([N+](=O)[O-])cc3Cl)c(Cl)c2)cc1Cl [Example 201, 3,5-dichloro-N-(3-chloro-4-methoxyphenyl)-4-(2-chloro-4-nitrophenoxy)benzene-sulfonamide] | + |  | + | + | + | +
8 | COc1ccc(NS(=O)(=O)c2cc(Cl)c(Oc3ccc([N+](=O)[O-])cc3Cl)c(Cl)c2)cc1 [Compound 208] | − |  | + | + | + | +
9 | O=[N+]([O-])c1ccc(Oc2c(Cl)cc(S(=O)(=O)Nc3ccsc3)cc2Cl)c(Cl)c1 [Example 165, 3,5-dichloro-4-(2-chloro-4-nitrophenoxy)-N-3-thienylbenzenesulfonamide] | + |  | + | + | + | +
10 | O=[N+]([O-])c1ccc(Oc2c(Cl)cc(S(=O)(=O)Nc3ccc4[nH]ccc4c3)cc2Cl)c(Cl)c1 [Example 174, 3,5-dichloro-4-(2-chloro-4-nitrophenoxy)-N-1H-indol-5-ylbenzenesulfonamide] | + |  | + | + | + | +
11 | O=[N+]([O-])c1ccc(Oc2c(Cl)cc(S(=O)(=O)Nc3cccc4c3oc3ccccc34)cc2Cl)c(Cl)c1 [Example 175, 3,5-dichloro-4-(2-chloro-4-nitrophenoxy)-N-dibenzo[b,d]furan-4-ylbenzenesulfonamide] | + |  | − | − |  | 
12 | O=[N+]([O-])c1ccc(Oc2c(Cl)cc(S(=O)(=O)Nc3ccccc3Cl)cc2Cl)c(Cl)c1 [Example 156, 3,5-dichloro-4-(2-chloro-4-nitrophenoxy)-N-(2-chlorophenyl)benzenesulfonamide] | + |  | + | + | + | 
13 | O=[N+]([O-])c1ccc(Oc2c(Cl)cc(S(=O)(=O)NC(=S)Nc3ccc(Cl)c(Cl)c3)cc2Cl)c(Cl)c1 [Compound 148, 3,5-dichloro-4-(2-chloro-4-nitrophenoxy)-N-{[(3,4-dichlorophenyl)amino]carbothioyl}benzenesulfonamide] | + |  | − | − |  | 

Continued, in another order:

Row | APC Flag 8 pt [1] | APC Flag (2 pt) ([1]; 2 concentrations tested) | SMILES | Cell Titer-Aqueous, A549 6 pt (A549 cells [2]) | Cell Titer-Aqueous, HELA 6 pt (HeLa cells [3]) | PAD Assay, HELA 6 pt (HeLa cells [4]) | PAD Assay, A549 6 pt (A549 cells [5])
14 | + |  | CC1(C)Oc2ccc(NS(=O)(=O)c3cc(Cl)c(Oc4ccc([N+](=O)[O-])cc4Cl)c(Cl)c3)cc2NC1=O [Example 213, 3,5-dichloro-4-(2-chloro-4-nitrophenoxy)-N-(2,2-dimethyl-3-oxo-3,4-dihydro-2H-1,4-benzoxazin-6-yl)benzenesulfonamide] | + | + |  | 
15 | + |  | O=C1Nc2cc(NS(=O)(=O)c3cc(Cl)c(Oc4ccc([N+](=O)[O-])cc4Cl)c(Cl)c3)ccc2OC1(F)F [Example 214, 3,5-dichloro-4-(2-chloro-4-nitrophenoxy)-N-(2,2-difluoro-3-oxo-3,4-dihydro-2H-1,4-benzoxazin-6-yl)benzenesulfonamide] | − | + | + | +
16 | − |  | O=[N+]([O-])c1ccc(Oc2c(Cl)cc(S(=O)(=O)Nc3cccnc3)cc2Cl)c(Cl)c1 [Example 205, 3,5-dichloro-4-(2-chloro-4-nitrophenoxy)-N-pyridin-3-ylbenzenesulfonamide] | − | − |  | 
17 | + |  | O=[N+]([O-])c1ccc(Oc2c(Cl)cc(S(=O)(=O)Nc3ncccn3)cc2Cl)c(Cl)c1 [Example 222, 3,5-dichloro-4-(2-chloro-4-nitrophenoxy)-N-pyrimidin-2-ylbenzenesulfonamide] | − | − |  | 
18 | + |  | O=[N+]([O-])c1ccc(Oc2c(Cl)cc(S(=O)(=O)Nc3cccnc3Cl)cc2Cl)c(Cl)c1 [Example 207, 3,5-dichloro-4-(2-chloro-4-nitrophenoxy)-N-(2-chloropyridin-3-yl)benzenesulfonamide] | + | + |  | 
19 |  | − (2 pt) | O=[N+]([O-])c1ccc(Oc2c(Cl)cc(S(=O)(=O)NC3Cc4ccccc4C3)cc2Cl)c(Cl)c1 [Example 224, 3,5-dichloro-4-(2-chloro-4-nitrophenoxy)-N-(2,3-dihydro-1H-inden-2-yl)benzene-sulfonamide] | + | + |  | 
20 | − |  | COc1ccc(NS(=O)(=O)c2cc(Cl)c(Oc3ccc([N+](=O)[O-])cc3Cl)c(Cl)c2)c(OC)n1 [Example 206, 3,5-dichloro-4-(2-chloro-4-nitrophenoxy)-N-(2,6-dimethoxypyridin-3-yl)benzene-sulfonamide] | + | + |  | 
